Key:
serotonin-2 receptor = experiment: Anti-serotonin (5-HT) action: contraction of isolated superior mesenteric artery induced by 10^−5 M 5-HT; details: contraction by 10^−5 M 5-HT taken as 100%, guinea pig superior mesenteric artery
Experimental: (1) Anti-Serotonin (5-HT) Action
A preparation cut in a helical form was suspended under resting tension of 0.3 g in a Magnus cylinder filled with the Tyrode solution which had been aerated with a gas mixture of 95% O2 and 5% CO2 and maintained at 37° C. Using an isometric transducer (“UL-10”, manufactured by SHINKOH K.K.) and a pressure preamplifier (“DSA-605A”, manufactured by SHINKOH K.K.), variations in tension were measured. The isometric tensions were recorded on a pen-writing recorder (“VP-6537A”, manufactured by NATIONAL K.K.). Taking the contraction induced by 10^−5 M serotonin (5-HT) as 100%, the percent contractions by 10^−5 M 5-HT in the presence of each test drug at 10^−8 M, 10^−7 M and 10^−6 M were determined as anti-5-HT action.

α1 receptors = experiment: Anti-α1 action: tonic contraction of isolated thoracic aorta induced by 10^−5 M norepinephrine; details: tonic contraction by 10^−5 M norepinephrine taken as 100%, guinea pig thoracic aorta
Experimental: The thoracic aorta of each Hartley male guinea pig (body weight: 300-500 g) was excised. A preparation cut in a helical form was suspended under 1 g load in a Magnus cylinder filled with the Tyrode solution which had been aerated with a gas mixture of 95% O2 and 5% CO2 and maintained at 37° C. Using an isometric transducer (“TB-612J”, manufactured by Nihon Kohden Corporation) and a pressure preamplifier (“AP-620G”, manufactured by Nihon Kohden Corporation), variations in tension were measured. The isometric tensions were recorded on a thermal pen-writing recorder (“WT-647G”, manufactured by Nihon Kohden Corporation). Taking the tonic contraction induced by 10^−5 M norepinephrine (NE) as 100%, the percent contractions upon addition of each test drug at 10^−8 M and 10^−7 M were determined as α1 action.

Cc1cn(C)c2c1C(=O)N(CCCN1CCN(c3ccc(F)cc3)CC1)CCC2O (stereo not drawn) [Compound No. 59, 5-[3-[4-(4-fluorophenyl)piperazin-1-yl]propyl]-8-hydroxy-1,3-dimethyl-1,4,5,6,7,8-hexahydropyrrolo[3,2-c]azepin-4-one]
Anti 5-HT action (% of Control) (serotonin-2 receptor; test drug 10^−7 M): 12.5 % of Control
Anti 5-HT action (% of Control) (serotonin-2 receptor; test drug 10^−8 M): 48.5 % of Control
Anti α1 action (% of Control) (α1 receptors; test drug 10^−7 M): 47.3 % of Control
Anti α1 action (% of Control) (α1 receptors; test drug 10^−8 M): 81.6 % of Control

Cn1ccc2c1C1(CCN(CCCN3CCN(c4ccc(F)cc4)CC3)C2=O)SCCS1 [Compound No. 52, 5-[3-[4-(4-fluorophenyl)piperazin-1-yl]propyl]-1-methyl-1,4,5,6,7,8-hexahydropyrrolo-[3,2-c]azepin-4-one-8-spiro-2′-(1′,3′-dithiolane)]
Anti 5-HT action (% of Control) (serotonin-2 receptor; test drug 10^−7 M): 20.9 % of Control
Anti 5-HT action (% of Control) (serotonin-2 receptor; test drug 10^−8 M): 75.5 % of Control
Anti α1 action (% of Control) (α1 receptors; test drug 10^−7 M): 75.8 % of Control
Anti α1 action (% of Control) (α1 receptors; test drug 10^−8 M): 96.8 % of Control

Cn1ccc2c1C(O)CCN(CCN1CCN(c3ccc(F)cc3)CC1)C2=O (stereo not drawn) [Compound No. 56, 5-[2-[4-(4-fluorophenyl)piperazin-1-yl]ethyl]-8-hydroxy-1-methyl-1,4,5,6,7,8-hexahydropyrrolo[3,2-c]azepin-4-one]
Anti 5-HT action (% of Control) (serotonin-2 receptor; test drug 10^−6 M): 47.9 % of Control
Anti 5-HT action (% of Control) (serotonin-2 receptor; test drug 10^−7 M): 90.2 % of Control
Anti α1 action (% of Control) (α1 receptors; test drug 10^−7 M): 71.4 % of Control
Anti α1 action (% of Control) (α1 receptors; test drug 10^−8 M): 96.7 % of Control

Cn1cc2c(c1)/C(=N\O)CCN(CCCN1CCN(c3ccc(F)cc3)CC1)C2=O [Compound No. 55, 5-[3-[4-(4-fluorophenyl)piperazin-1-yl]propyl]-8-[(Z)-hydroxyimino]-2-methyl-2,4,5,6,7,8-hexahydropyrrolo[3,4-c]azepin-4-one]
Anti 5-HT action (% of Control) (serotonin-2 receptor; test drug 10^−6 M): 11.0 % of Control
Anti 5-HT action (% of Control) (serotonin-2 receptor; test drug 10^−7 M): 59.5 % of Control
Anti α1 action (% of Control) (α1 receptors; test drug 10^−7 M): 73.5 % of Control
Anti α1 action (% of Control) (α1 receptors; test drug 10^−8 M): 97.6 % of Control

Cn1ccc2c1[C@H](O)CCN(CCCN1CCN(c3ccc(F)cc3)CC1)C2=O [Compound No. 84]
Anti 5-HT action (% of Control) (serotonin-2 receptor; test drug 10^−6 M): 11.9 % of Control
Anti 5-HT action (% of Control) (serotonin-2 receptor; test drug 10^−7 M): 61.9 % of Control
Anti 5-HT action (% of Control) (serotonin-2 receptor; test drug 10^−8 M): 82.0 % of Control
Anti α1 action (% of Control) (α1 receptors; test drug 10^−7 M): 92.4 % of Control
Anti α1 action (% of Control) (α1 receptors; test drug 10^−8 M): 100 % of Control

Cn1ccc2c1C(=NO)CCN(CCCN1CCN(c3ccc(F)cc3)CC1)C2=O [Compound No. 53, 5-[3-[4-(4-fluorophenyl)piperazin-1-yl]propyl]-8-hydroxyimino-1-methyl-1,4,5,6,7,8-hexahydropyrrolo[3,2-c]azepin-4-one]
Anti 5-HT action (% of Control) (serotonin-2 receptor; test drug 10^−6 M): 48.2 % of Control
Anti 5-HT action (% of Control) (serotonin-2 receptor; test drug 10^−7 M): 87.1 % of Control
Anti α1 action (% of Control) (α1 receptors; test drug 10^−7 M): 60.1 % of Control
Anti α1 action (% of Control) (α1 receptors; test drug 10^−8 M): 86.1 % of Control

Cn1ccc2c1C(O)CCN(CCCN1CCN(c3ccc(F)cc3)CC1)C2=O (stereo not drawn) [Compound No. 57, 5-[3-[4-(4-fluorophenyl)piperazin-1-yl]propyl]-8-hydroxy-1-methyl-1,4,5,6,7,8-hexahydropyrrolo[3,2-c]azepin-4-one]
Anti 5-HT action (% of Control) (serotonin-2 receptor; test drug 10^−6 M): 7.5 % of Control
Anti 5-HT action (% of Control) (serotonin-2 receptor; test drug 10^−7 M): 12.0 % of Control
Anti 5-HT action (% of Control) (serotonin-2 receptor; test drug 10^−8 M): 54.6 % of Control
Anti α1 action (% of Control) (α1 receptors; test drug 10^−7 M): 91.4 % of Control
Anti α1 action (% of Control) (α1 receptors; test drug 10^−8 M): 100 % of Control

Cn1ccc2c1C=CCN(CCCN1CCN(c3ccc(Cl)cc3)CC1)C2=O [Compound No. 79, 5-[3-[4-(4-chlorophenyl)piperazin-1-yl]propyl]-1-methyl-1,4,5,6-tetrahydropyrrolo[3,2-c]azepin-4-one]
Anti 5-HT action (% of Control) (serotonin-2 receptor; test drug 10^−7 M): 31.8 % of Control
Anti 5-HT action (% of Control) (serotonin-2 receptor; test drug 10^−8 M): 78.3 % of Control
Anti α1 action (% of Control) (α1 receptors; test drug 10^−7 M): 58.1 % of Control
Anti α1 action (% of Control) (α1 receptors; test drug 10^−8 M): 94.8 % of Control

O=C1c2ccn(Cc3ccccc3)c2C(O)CCN1CCCN1CCN(c2ccc(F)cc2)CC1 (stereo not drawn) [Compound No. 62, 1-benzyl-5-[3-[4-(4-fluorophenyl)piperazin-1-yl]propyl]-8-hydroxy-1,4,5,6,7,8-hexahydropyrrolo[3,2-c]azepin-4-one]
Anti 5-HT action (% of Control) (serotonin-2 receptor; test drug 10^−6 M): 11.1 % of Control
Anti 5-HT action (% of Control) (serotonin-2 receptor; test drug 10^−7 M): 50.6 % of Control
Anti α1 action (% of Control) (α1 receptors; test drug 10^−7 M): 31.7 % of Control
Anti α1 action (% of Control) (α1 receptors; test drug 10^−8 M): 95.0 % of Control

O=C1c2ccn(-c3ccccc3)c2C(O)CCN1CCCN1CCN(c2ccc(F)cc2)CC1 (stereo not drawn) [Compound No. 61, 5-[3-[4-(4-fluorophenyl)piperazin-1-yl]propyl]-8-hydroxy-1-phenyl-1,4,5,6,7,8-hexahydropyrrolo[3,2-c]azepin-4-one]
Anti 5-HT action (% of Control) (serotonin-2 receptor; test drug 10^−6 M): 37.3 % of Control
Anti 5-HT action (% of Control) (serotonin-2 receptor; test drug 10^−7 M): 74.3 % of Control
Anti α1 action (% of Control) (α1 receptors; test drug 10^−7 M): 39.4 % of Control
Anti α1 action (% of Control) (α1 receptors; test drug 10^−8 M): 96.1 % of Control

Cn1ccc2c1C(O)CCN(CCCN1CCC(c3ccccc3)CC1)C2=O (stereo not drawn) [Compound No. 73, 8-hydroxy-1-methyl-5-[3-(4-phenylpiperidino)propyl]-1,4,5,6,7,8-hexahydropyrrolo-[3,2-c]azepin-4-one]
Anti 5-HT action (% of Control) (serotonin-2 receptor; test drug 10^−6 M): 14.9 % of Control
Anti 5-HT action (% of Control) (serotonin-2 receptor; test drug 10^−7 M): 54.7 % of Control
Anti 5-HT action (% of Control) (serotonin-2 receptor; test drug 10^−8 M): 90.7 % of Control
Anti α1 action (% of Control) (α1 receptors; test drug 10^−7 M): 94.0 % of Control
Anti α1 action (% of Control) (α1 receptors; test drug 10^−8 M): 99.3 % of Control

COC1CCN(CCCN2CCN(c3ccc(Cl)cc3)CC2)C(=O)c2ccn(C)c21 (stereo not drawn) [Compound No. 76, 5-[3-[4-(4-chlorophenyl)piperazin-1-yl]propyl]-8-methoxy-1-methyl-1,4,5,6,7,8-hexahydropyrrolo[3,2-c]azepin-4-one]
Anti 5-HT action (% of Control) (serotonin-2 receptor; test drug 10^−6 M): 7.2 % of Control
Anti 5-HT action (% of Control) (serotonin-2 receptor; test drug 10^−7 M): 35.5 % of Control
Anti α1 action (% of Control) (α1 receptors; test drug 10^−7 M): 88.1 % of Control
Anti α1 action (% of Control) (α1 receptors; test drug 10^−8 M): 98.9 % of Control

Cn1ccc2c1C(=O)CCN(CCCN1CCC(c3noc4cc(F)ccc34)CC1)C2=O [Compound No. 50, 5-[3-[4-(6-fluoro-1,2-benzisoxazol-3-yl)piperidino]propyl]-1-methyl-1,4,5,6,7,8-hexahydropyrrolo[3,2-c]azepine-4,8-dione]
Anti 5-HT action (% of Control) (serotonin-2 receptor; test drug 10^−7 M): 25.1 % of Control
Anti 5-HT action (% of Control) (serotonin-2 receptor; test drug 10^−8 M): 67.5 % of Control
Anti α1 action (% of Control) (α1 receptors; test drug 10^−7 M): 34.2 % of Control
Anti α1 action (% of Control) (α1 receptors; test drug 10^−8 M): 67.1 % of Control

Cn1ccc2c1C(O)CCN(CCCN1CCC(C(=O)c3ccc(F)cc3)CC1)C2=O (stereo not drawn) [Compound No. 75, 5-[3-[4-(4-fluorobenzoyl)piperidino]-propyl]-8-hydroxy-1-methyl-1,4,5,6,7,8-hexahydropyrrolo[3,2-c]azepin-4-one]
Anti 5-HT action (% of Control) (serotonin-2 receptor; test drug 10^−6 M): 25.2 % of Control
Anti 5-HT action (% of Control) (serotonin-2 receptor; test drug 10^−7 M): 71.7 % of Control
Anti α1 action (% of Control) (α1 receptors; test drug 10^−7 M): 70.3 % of Control
Anti α1 action (% of Control) (α1 receptors; test drug 10^−8 M): 98.3 % of Control

Cn1ccc2c1CCCN(CCCN1CCN(c3ccc(F)cc3)CC1)C2=O [Compound No. 82, 5-[3-[4-(4-fluorophenyl)piperazin-1-yl]propyl]-1-methyl-1,4,5,6,7,8-hexahydropyrrolo-[3,2-c]azepin-4-one]
Anti 5-HT action (% of Control) (serotonin-2 receptor; test drug 10^−7 M): 8.4 % of Control
Anti 5-HT action (% of Control) (serotonin-2 receptor; test drug 10^−8 M): 35.2 % of Control
Anti α1 action (% of Control) (α1 receptors; test drug 10^−7 M): 37.6 % of Control
Anti α1 action (% of Control) (α1 receptors; test drug 10^−8 M): 87.6 % of Control

Reference: patent US6713634B2, “Pyrroloazepine derivatives” (Daiichi Suntory Pharma Co., Ltd., priority 1995, dated 2004)
